The results in this text go back to PubChem BioAssay (NCI).

Holding throughout (experiment): NCI anticancer screen, dose series, 48 h
For assay [1], the system named is ACHN renal.
Assay [2] has as its system HCT-116 colon.
Assay [3] relates to HCT-15 colon.
The subject of assay [4] is KM12 colon.
Assay [5] deals with MDA-MB-231 breast.
In assay [6] the test system is MOLT-4 leukemia.
Assay [7] relates to NCI-H23 lung.
Assay [8] has as its system SF-268 CNS.
Assay [9] concerns T-47D breast.
The subject of assay [10] is TK-10 renal.
The test system of assay [11] is U251 CNS.
The test system of assay [12] is UACC-257 melanoma.
The subject of assay [13] is RXF 393 renal.

The structures appear in SMILES notation.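 Cultured in 96-well plates, cells were exposed to test compound for 48 hours across five concentrations. TGI marks complete inhibition of growth.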 Where a SMILES comes first, the peptide text is derived from it. [ ]: non-standard residue; d: D form. The star is where a group is joined. ξ: configuration not given here. ξPhe(4-NO2) = NC(Cc1ccc([N+](=O)[O-])cc1)C(=O)O; Boc = CC(C)(C)OC(=O)*

Take `COC(=O)/C=C/c1cnc2c(c1)oc(=O)n2C`: the TGI in assay [1], in [2], in assay [3], in assay [4], in assay [5] and in assay [6] was greater than 100 µM each time. The TGI in assay [7], in assay [8], in assay [9], in assay [10], in assay [11] and in assay [12] was greater than 100 µM in each case.
Consider `COc1cc(C2SCC(=O)N2NC(=O)c2ccc(NC(C)=O)cc2OC)ccc1O` (stereo unspecified), for which the TGI in assay [1], in assay [2], in assay [3], in assay [6], in [7] and in assay [13] was greater than 100 µM throughout. The figures for the TGI in assay [8] and in assay [9] were 99 µM and greater than 100 µM, respectively.
Regarding `CN(/N=C/c1ccccc1C(=O)O)C1=NCCCCN1`, the TGI in [1], in assay [2], in assay [3], in assay [4], in [5] and in [6] was greater than 100 µM in each case. For the same compound, the TGI in assay [7], in assay [8], in [9], in [10], in assay [11] and in [12] was greater than 100 µM each time.
`CCOc1ncnc2ccc(Cl)c(I)c12`: the TGI was greater than 100 µM in assay [1]; greater than 100 µM in [2]; greater than 100 µM in [3]; greater than 100 µM in assay [4]; greater than 100 µM in [7]; 60.7 µM in assay [13]. The TGI in [8], in assay [10], in assay [11] and in assay [12] was greater than 100 µM each time.
For `CC(C)(C)OC(=O)N1CCC(NC(=O)NC2CCN(C(=O)OC(C)(C)C)CC2)CC1`, the TGI in assay [1], in assay [2], in assay [3], in assay [4], in assay [5] and in assay [7] was greater than 100 µM in each case. Moreover, the TGI in [8], in assay [10], in assay [11] and in assay [12] was greater than 100 µM each time.
For the compound `CCNC(=O)CNC(=O)C(Cc1ccc([N+](=O)[O-])cc1)NC(=O)OC(C)(C)C` (stereo unspecified) (Boc-[ξPhe(4-NO2)]-Gly-NHEt), the TGI in [1], in [2], in assay [3], in [4], in [5] and in [6] was greater than 100 µM in each case. For the same compound, the TGI in assay [7], in assay [13], in [8], in assay [10] and in assay [11] was greater than 100 µM throughout.
Take `COc1cc(OC)cc(C(=O)Cc2c(C(=O)c3ccccc3)c3ccccc3n2C(=O)c2ccccc2)c1`: the TGI in [1], in [2], in assay [3], in [4], in assay [6] and in assay [7] was greater than 100 µM in each case. Also, the TGI in [13] was greater than 100 µM; in assay [8], greater than 100 µM; in assay [10] it was 98.3 µM; in [11], greater than 100 µM.
With `COc1ccc(NS(=O)(=O)c2ccc(N=C3C=C(Nc4ccc(S(=O)(=O)Nc5ccc(OC)nn5)cc4)C(=O)c4ccccc43)cc2)nn1`, the TGI in assay [1] was 37.8 µM; in assay [2] it was 32 µM; in [3] it was 32.4 µM; in assay [4], 30.5 µM; in assay [6], greater than 100 µM; in assay [7], 29.7 µM. In addition, the TGI in assay [13] was 32.8 µM; in [8], 52.9 µM; in assay [10] it was 40 µM; in [11], 33.2 µM; in assay [12], 35.8 µM.
With `CC1=CC(=O)/C(=C/N2C(=O)CNC2=S)C(=O)O1`, the TGI in assay [1], in [2], in assay [3], in assay [4], in [5] and in assay [6] was greater than 100 µM in each case. Besides, the TGI in assay [7], in assay [9], in assay [10], in assay [11] and in [12] was greater than 100 µM each time.
Turning to `O=C(NNC(=O)c1c(Cl)c(Cl)c(Cl)c(Cl)c1-c1nc2ccccc2[nH]1)c1ccc(Cl)cc1`, the TGI in assay [1], in assay [2], in assay [3], in assay [4], in assay [6] and in assay [7] was greater than 100 µM throughout. Also, the TGI is greater than 100 µM in assay [13], greater than 100 µM in [8] and 93.5 µM in assay [9].
In the case of `CCOC(=O)c1csc(-c2nc(CCNC(=O)c3ccccc3)sc2Cl)n1`, the TGI in [1], in assay [2], in assay [3], in [4], in assay [6] and in assay [7] was greater than 100 µM in each case. The TGI in assay [13], in assay [8], in assay [10], in assay [11] and in assay [12] was greater than 100 µM each time.
`CCCCN1CCC(O)(c2cc(C(=O)O)[nH]c2-c2cc(C)no2)C1=O` (stereo unspecified): the TGI in assay [1], in assay [2], in assay [3], in assay [4], in [5] and in assay [6] was greater than 100 µM throughout. Further, the TGI in assay [7], in [13], in assay [8], in [10], in assay [11] and in assay [12] was greater than 100 µM each time.
In the case of `CCCCC(N)CSSCC(N)CCCC` (stereo unspecified), the TGI in [1] is greater than 100 µM; in [2], 31.8 µM; in [3], 63.2 µM; in [4], greater than 100 µM; in assay [6], 47.9 µM; in assay [7], 55.4 µM. Further, the figures for the TGI in assay [8], in [10] and in assay [12] were 61.5 µM, greater than 100 µM and 44.9 µM, respectively.
For the compound `Cn1cc2ccccc2c1-c1nc(F)nc(Nc2ccc(N)cc2)n1`, the TGI in assay [1] was determined as 68 µM; in assay [2], 35.1 µM; in assay [3] it was 26.3 µM; in [4], 41.9 µM; in [6], 65.5 µM; in assay [7] it was 29.3 µM. Further, the TGI is 45 µM in assay [13]; 56.3 µM in assay [8]; greater than 100 µM in assay [10]; 26.4 µM in [11]; 37.6 µM in assay [12].
For `COc1ccc(NC(=S)Nc2c(C)n(C)n(-c3ccccc3)c2=O)cc1`, the TGI in assay [1], in [2], in [3], in assay [4], in [5] and in assay [6] was greater than 100 µM throughout. Further, the TGI in [7], in assay [13], in assay [8], in [10], in assay [11] and in assay [12] was greater than 100 µM throughout.
As to `N#Cc1c2ccc([N+](=O)[O-])cc2c(=O)n2c1sc1ccccc12`, the TGI in assay [1] was greater than 100 µM; in [2], 38.8 µM; in assay [3] it was greater than 100 µM; in [4], greater than 100 µM; in [5], 49.2 µM; in [7], 43 µM. The TGI is greater than 100 µM in assay [8]; 71.4 µM in [9]; 55.8 µM in assay [10]; 95.4 µM in assay [11]; greater than 100 µM in [12].
Consider `Cc1ccc(N2C3=C(CC4=C2CC(C)(C)CC4=O)C(=O)CC(C)(C)C3)cc1`, for which the TGI in assay [1], in [2], in [3], in assay [4], in assay [5] and in assay [6] was greater than 100 µM throughout. Also, the TGI in assay [7], in assay [13], in assay [8], in [10], in assay [11] and in assay [12] was greater than 100 µM throughout.
Take `CCOC(OCC)[C@H](N)[C@@H](O)[C@@H](O)[C@H]1COC(C)(C)O1`: the TGI in assay [1], in assay [2], in assay [3], in assay [4], in assay [5] and in [6] was greater than 100 µM throughout. Further, the TGI in assay [7], in [8], in [10], in [11] and in [12] was greater than 100 µM throughout.
Take `NC(Cc1ccc(O)cn1)C(=O)O` (stereo unspecified): the TGI in assay [1], in assay [2], in [3], in assay [4], in [5] and in assay [6] was greater than 100 µM in each case. In addition, the TGI in assay [7], in [13], in assay [8], in assay [10], in assay [11] and in assay [12] was greater than 100 µM in each case.
Regarding `CC(C)=CCC/C(C)=C/CC/C(C)=C/C1CCC(=O)C1(C)C` (stereo unspecified), the TGI in assay [1] worked out at 30.1 µM; in [2], 30.7 µM; in assay [3] it was 28.9 µM; in assay [4], 32.7 µM; in [6] it was 41 µM; in assay [7] it was 41.1 µM. In addition, the TGI in assay [13] is 37.5 µM; in assay [8], 33.6 µM; in assay [10] it was greater than 100 µM; in [11] it was 32.7 µM; in [12] it was 42.7 µM.
`CS(=O)(=O)CCC(N)P(=O)(O)O` (stereo unspecified): the TGI in assay [1], in [2], in assay [3], in assay [4], in assay [6] and in assay [7] was greater than 100 µM throughout. For the same compound, the TGI in assay [8], in [9], in [10], in assay [11] and in assay [12] was greater than 100 µM each time.
Consider `CC1(C)/C(=N\Nc2ccc([N+](=O)[O-])cc2[N+](=O)[O-])C2CCC1C2` (stereo unspecified), for which the TGI in assay [1], in assay [2], in [3], in assay [4], in [6] and in [7] was greater than 100 µM in each case. Further, the TGI in assay [8], in assay [9], in assay [10], in [11] and in assay [12] was greater than 100 µM throughout.
`C=C(C1=CC(=O)C(C)(C)O1)[C@@H]1CC=C([C@@H]2CC[C@H]3[C@@]2(C)CC[C@H]2C(C)(C)C(=O)[C@H](OC(=O)CC(C)(O)CC(=O)O)C[C@]32C)[C@H](O)O1` (stereo partly specified): the TGI in assay [1] amounted to 25.4 µM; in [2], 24 µM; in assay [3], 24.9 µM; in assay [4], 29.7 µM; in assay [5] it was 35.8 µM; in assay [6], 30.8 µM. Besides, the TGI in [7] is 27.5 µM; in assay [13] it was 17 µM; in assay [8], 24.4 µM; in assay [10], greater than 75 µM; in assay [11], 25.2 µM; in [12] it was 35.6 µM.
Consider `CC(=O)OCCCCn1cnc2c(Cl)nc(Nc3ccccc3)nc21`, for which the TGI in [1], in assay [2], in assay [3], in assay [4], in assay [5] and in assay [6] was greater than 100 µM each time. Also, the TGI in assay [7], in [9], in assay [10], in [11] and in assay [12] was greater than 100 µM throughout.
